Our source for the IC50 values is US11053239B2, “Compounds as BLC-2-selective apoptosis-inducing agents” (Fochon Pharmaceuticals, Ltd., priority 2017, dated 2021).

Read-outs that look alike come from different tables or passages of the source.

In one assay the test system is RS4; 11 cells. The assay is described as follows: Cell proliferation assay (MTS), RS4; 11 cells. In kind it is cell-based. The conditions noted are these: RS4, 11 (ATCC CRL-1873) cell proliferation, 30000 cells/well, 72 h, MTS, mechanism-based readout of Bcl-2 inhibition, read-out: RS4, 11 IC50. In a few lines:
(§1)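 RS4;11 (30000 cells/well, 72 h) and DOHH2 (5000 cells/well, 120 h) cells in RPMI-1640/10% FBS, treated at 37 °C with compound at 1.5–10000 nM final. Viability by MTS (2 h, SDS stop), absorbance 490 nm minus 650 nm reference; IC50 fitted.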

A further assay concerns DOHH2 cells. The assay is described as follows: Cell proliferation assay (MTS), DOHH2 cells. The format is cell-based. The conditions noted are these: DOHH2 (DSMZ ACC 47) cell proliferation, 5000 cells/well, 120 h, MTS, mechanism-based readout of Bcl-2 inhibition, read-out: DOHH2 IC50. The essentials: as §1

For the compound `CC1(C)CCC(CN2CCN(c3ccc(C(=O)NS(=O)(=O)c4ccc(NCC5CCC(N=S6(=O)CCCC6)CC5)c(S(=O)(=O)C(F)(F)F)c4)c(Oc4cnc5[nH]ccc5c4)c3)CC2)=C(c2ccc(Cl)cc2)C1` (stereo not shown) [Example 64, 2-((1H-pyrrolo[2,3-b]pyridin-5-yl)oxy)-4-(4-((4′-chloro-5,5-dimethyl-3,4,5,6-tetrahydro-[1,1′-biphenyl]-2-yl)methyl)piperazin-1-yl)-N-((4-(((4-((1-oxidotetrahydro-1λ^6-thiophen-1-ylidene)amino)cyclohexyl)methyl)amino)-3-((trifluoromethyl)sulfonyl)phenyl)sulfonyl)benzamide], the IC50 with RS4; 11 cells (Homo sapiens, RS4-11, 72 h) turned out to be 0.216 µM; in the assay with DOHH2 cells (Homo sapiens, DOHH-2, 120 h), 0.32 µM.
On to `CC(=O)N=S1(=O)CCN(CC[C@H](C)Nc2ccc(S(=O)(=O)NC(=O)c3ccc(N4CCN(CC5=C(c6ccc(Cl)cc6)CC(C)(C)CC5)CC4)cc3Oc3cnc4[nH]ccc4c3)cc2[N+](=O)[O-])CC1` [Example 80], for which the IC50 is 0.047 µM in the assay on RS4; 11 cells (Homo sapiens, RS4-11, 72 h) and 0.095 µM in the assay with DOHH2 cells (Homo sapiens, DOHH-2, 120 h).
Take `CC(C)C(=O)N=S1(=O)CCN(C[C@H](C)Nc2ccc(S(=O)(=O)NC(=O)c3ccc(N4CCN(CC5=C(c6ccc(Cl)cc6)CC(C)(C)CC5)CC4)cc3Oc3cnc4[nH]ccc4c3)cc2[N+](=O)[O-])CC1` [Example 66, (S)-2-((1H-pyrrolo[2,3-b]pyridin-5-yl)oxy)-4-(4-((4′-chloro-5,5-dimethyl-3,4,5,6-tetrahydro-[1,1′-biphenyl]-2-yl)methyl)piperazin-1-yl)-N-((4-((1-(1-(isobutyrylimino)-1-oxido-1λ^6-thiomorpholino)propan-2-yl)amino)-3-nitrophenyl)sulfonyl) benzamide]: the IC50 in the assay with RS4; 11 cells (Homo sapiens, RS4-11, 72 h) was found to be 0.011 µM; in the assay with DOHH2 cells (Homo sapiens, DOHH-2, 120 h), 0.023 µM.
In the case of `C[C@@H](CCN1CCC(N=S(C)(C)=O)CC1)Nc1ccc(S(=O)(=O)NC(=O)c2ccc(N3CCN(CC4=C(c5ccc(Cl)cc5)CC(C)(C)CC4)CC3)cc2Oc2cnc3[nH]ccc3c2)cc1[N+](=O)[O-]` [Example 96, (S)-2-((1H-pyrrolo[2,3-b]pyridin-5-yl)oxy)-4-(4-((4′-chloro-5,5-dimethyl-3,4,5,6-tetrahydro-[1,1′-biphenyl]-2-yl)methyl)piperazin-1-yl)-N-((4-((4-(4-((dimethyl(oxo)-λ^6-sulfanylidene)amino)piperidin-1-yl)butan-2-yl)amino)-3-nitrophenyl)sulfonyl) benzamide], the IC50 came to 0.02 µM in the assay on RS4; 11 cells (Homo sapiens, RS4-11, 72 h) and 0.026 µM in the assay with DOHH2 cells (Homo sapiens, DOHH-2, 120 h).
With `CCN=S1(=O)CCN(CC[C@H](C)Nc2ccc(S(=O)(=O)NC(=O)c3ccc(N4CCN(CC5=C(c6ccc(Cl)cc6)CC(C)(C)CC5)CC4)cc3Oc3cnc4[nH]ccc4c3)cc2S(=O)(=O)C(F)(F)F)CC1` [Example 87, (S)-2-((1H-pyrrolo[2,3-b]pyridin-5-yl)oxy)-4-(4-((4′-chloro-5,5-dimethyl-3,4,5,6-tetrahydro-[1,1′-biphenyl]-2-yl)methyl)piperazin-1-yl)-N-((4-((4-(1-(ethylimino)-1-oxido-1λ^6-thiomorpholino)butan-2-yl)amino)-3-((trifluoromethyl)sulfonyl)phenyl)sulfonyl) benzamide], the figures for the IC50 in the assay with RS4; 11 cells and with DOHH2 cells were 0.145 µM and 0.266 µM, respectively.
As to `C[C@@H](CN1CCS(=O)(=NC2CC2)CC1)Nc1ccc(S(=O)(=O)NC(=O)c2ccc(N3CCN(CC4=C(c5ccc(Cl)cc5)CC(C)(C)CC4)CC3)cc2Oc2cnc3[nH]ccc3c2)cc1[N+](=O)[O-]` [Example 39, (S)-2-((1H-pyrrolo[2,3-b]pyridin-5-yl)oxy)-4-(4-((4′-chloro-5,5-dimethyl-3,4,5,6-tetrahydro-[1,1′-biphenyl]-2-yl)methyl)piperazin-1-yl)-N-((4-((1-(1-(cyclopropylimino)-1-oxido-1λ^6-thiomorpholino)propan-2-yl)amino)-3-nitrophenyl)sulfonyl)benzamide], the IC50 was 0.04 µM in the assay on RS4; 11 cells (Homo sapiens, RS4-11, 72 h) and 0.163 µM in the assay on DOHH2 cells (Homo sapiens, DOHH-2, 120 h).
As to `CC(C)OC(=O)N=S1(=O)CCN(C[C@H](C)Nc2ccc(S(=O)(=O)NC(=O)c3ccc(N4CCN(CC5=C(c6ccc(Cl)cc6)CC(C)(C)CC5)CC4)cc3Oc3cnc4[nH]ccc4c3)cc2[N+](=O)[O-])CC1` [Example 73, isopropyl (S)-(4-(2-((4-(N-(2-((1H-pyrrolo[2,3-b]pyridin-5-yl)oxy)-4-(4-((4′-chloro-5,5-dimethyl-3,4,5,6-tetrahydro-[1,1′-biphenyl]-2-yl)methyl)piperazin-1-yl)benzoyl)sulfamoyl)-2-nitrophenyl)amino)propyl)-1-oxido-1λ^6-thiomorpholin-1-ylidene)carbamate], the IC50 was found to be 0.094 µM in the assay with RS4; 11 cells (Homo sapiens, RS4-11, 72 h) and 0.263 µM in the assay with DOHH2 cells (Homo sapiens, DOHH-2, 120 h).
For `CC1(C)CCC(CN2CCN(c3ccc(C(=O)NS(=O)(=O)c4cnc(NCC5CCC(N=S(C)(C)=O)CC5)c([N+](=O)[O-])c4)c(Oc4cnc5[nH]ccc5c4)c3)CC2)=C(c2ccc(Cl)cc2)C1` (stereo not shown) [Example 52, 2-((1H-pyrrolo[2,3-b]pyridin-5-yl)oxy)-4-(4-((4′-chloro-5,5-dimethyl-3,4,5,6-tetrahydro-[1,1′-biphenyl]-2-yl)methyl)piperazin-1-yl)-N-((6-(((4-((dimethyl(oxo)-λ^6-sulfanylidene)amino)cyclohexyl)methyl)amino)-5-nitropyridin-3-yl)sulfonyl) benzamide], in that order: 0.002 µM and 0.029 µM.
As to `CC1(C)CCC(CN2CCN(c3ccc(C(=O)NS(=O)(=O)c4ccc(NCC5CCC(N=S6(=O)CCCC6)CC5)c([N+](=O)[O-])c4)c(Oc4cnc5[nH]ccc5c4)c3)CC2)=C(c2ccc(Cl)cc2)C1` (stereo not shown) [Example 53, 2-((1H-pyrrolo[2,3-b]pyridin-5-yl)oxy)-4-(4-((4′-chloro-5,5-dimethyl-3,4,5,6-tetrahydro-[1,1′-biphenyl]-2-yl)methyl)piperazin-1-yl)-N-((3-nitro-4-(((4-((1-oxidotetrahydro-1λ^6-thiophen-1-ylidene)amino)cyclohexyl)methyl)amino)phenyl)sulfonyl)benzamide], the IC50 was 0.007 µM in the assay with RS4; 11 cells (Homo sapiens, RS4-11, 72 h) and 0.011 µM in the assay with DOHH2 cells (Homo sapiens, DOHH-2, 120 h).
For `C[C@@H](CCN1CCS(=O)(=NC(=O)C2CC2)CC1)Nc1ccc(S(=O)(=O)NC(=O)c2ccc(N3CCN(CC4=C(c5ccc(Cl)cc5)CC(C)(C)CC4)CC3)cc2Oc2cnc3[nH]ccc3c2)cc1S(=O)(=O)C(F)(F)F` [Example 91, (S)-2-((1H-pyrrolo[2,3-b]pyridin-5-yl)oxy)-4-(4-((4′-chloro-5,5-dimethyl-3,4,5,6-tetrahydro-[1,1′-biphenyl]-2-yl)methyl)piperazin-1-yl)-N-((4-((4-(1-((cyclopropanecarbonyl)imino)-1-oxido-1λ^6-thiomorpholino)butan-2-yl)amino)-3-((trifluoromethyl)sulfonyl)phenyl)sulfonyl)benzamide], in that order: 0.119 µM and 0.255 µM.
For `CCC(=O)N=S1(=O)CCN(CC[C@H](C)Nc2ccc(S(=O)(=O)NC(=O)c3ccc(N4CCN(CC5=C(c6ccc(Cl)cc6)CC(C)(C)CC5)CC4)cc3Oc3cnc4[nH]ccc4c3)cc2[N+](=O)[O-])CC1` [Example 81, (S)-2-((1H-pyrrolo[2,3-b]pyridin-5-yl)oxy)-4-(4-((4′-chloro-5,5-dimethyl-3,4,5,6-tetrahydro-[1,1′-biphenyl]-2-yl)methyl)piperazin-1-yl)-N-((3-nitro-4-((4-(1-oxido-1-(propionylimino)-1λ^6-thiomorpholino)butan-2-yl)amino)phenyl)sulfonyl) benzamide], in that order: 0.007 µM and 0.03 µM.
Turning to `CCC(=O)N=S1(=O)CCN(CCNc2ccc(S(=O)(=O)NC(=O)c3ccc(N4CCN(CC5=C(c6ccc(Cl)cc6)CC(C)(C)CC5)CC4)cc3Oc3cnc4[nH]ccc4c3)cc2[N+](=O)[O-])CC1` [Example 67, 2-((1H-pyrrolo[2,3-b]pyridin-5-yl)oxy)-4-(4-((4′-chloro-5,5-dimethyl-3,4,5,6-tetrahydro-[1,1′-biphenyl]-2-yl)methyl)piperazin-1-yl)-N-((3-nitro-4-((2-(1-oxido-1-(propionylimino)-1λ^6-thiomorpholino)ethyl)amino)phenyl)sulfonyl)benzamide], the IC50 in the assay on RS4; 11 cells (Homo sapiens, RS4-11, 72 h) was 0.032 µM; in the assay with DOHH2 cells (Homo sapiens, DOHH-2, 120 h), 0.138 µM.
With `CC1(C)CCC(CN2CCN(c3ccc(C(=O)NS(=O)(=O)c4ccc(NCC5CCC(N=S6(=O)CCOCC6)CC5)c([N+](=O)[O-])c4)c(Oc4cnc5[nH]ccc5c4)c3)CC2)=C(c2ccc(Cl)cc2)C1` (stereo not shown) [Example 54, 2-((1H-pyrrolo[2,3-b]pyridin-5-yl)oxy)-4-(4-((4′-chloro-5,5-dimethyl-3,4,5,6-tetrahydro-[1,1′-biphenyl]-2-yl)methyl)piperazin-1-yl)-N-((3-nitro-4-(((4-((4-oxido-1,4λ^6-oxathian-4-ylidene)amino)cyclohexyl)methyl)amino)phenyl)sulfonyl) benzamide], the IC50 in the assay with RS4; 11 cells (Homo sapiens, RS4-11, 72 h) is 0.004 µM; in the assay on DOHH2 cells (Homo sapiens, DOHH-2, 120 h) it was 0.009 µM.
For the compound `CC1(C)CCC(CN2CCN(c3ccc(C(=O)NS(=O)(=O)c4ccc(NCC5CCC(N=S(C)(C)=O)CO5)c([N+](=O)[O-])c4)c(Oc4cnc5[nH]ccc5c4)c3)CC2)=C(c2ccc(Cl)cc2)C1` (stereo not shown) [Example 57, 2-((1H-pyrrolo[2,3-b]pyridin-5-yl)oxy)-4-(4-((4′-chloro-5,5-dimethyl-3,4,5,6-tetrahydro-[1,1′-biphenyl]-2-yl)methyl)piperazin-1-yl)-N-((4-(((5-((dimethyl(oxo)-λ^6-sulfanylidene)amino)tetrahydro-2H-pyran-2-yl)methyl)amino)-3-nitrophenyl)sulfonyl)benzamide], the IC50 is 0.02 µM with RS4; 11 cells (Homo sapiens, RS4-11, 72 h) and 0.03 µM in the assay with DOHH2 cells (Homo sapiens, DOHH-2, 120 h).
